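Cultured in 96-well plates, cells were exposed to test compound for 48 hours across five concentrations. GI50 marks 50% less growth.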 Activity calls are given as the source filed them. Rule as the data show it: active = GI50 up to about 1.1 µM and inactive = higher.
Columns and labels:
Experiment in all cases: inhibition of tumour cell growth, NCI panel, 48 h
TK-10 = tested on: TK-10
NCI-H226 = tested on: NCI-H226
UACC-62 = tested on: UACC-62
IGROV-1 = tested on: IGROV-1
OVCAR-4 = tested on: OVCAR-4
HT-29 = tested on: HT-29
SK-MEL-28 = tested on: SK-MEL-28
ACHN = tested on: ACHN
HOP-62 = tested on: HOP-62
SN12C = tested on: SN12C
LOX IMVI = tested on: LOX IMVI
RXF 393 = tested on: RXF 393
SK-OV-3 = tested on: SK-OV-3
U-251 = tested on: U-251
MDA-MB-231 = tested on: MDA-MB-231
Hs-578T = tested on: Hs-578T
MCF7 = tested on: MCF7
MDA-N = tested on: MDA-N
MDA-MB-435 = tested on: MDA-MB-435
PC-3 = tested on: PC-3

Measured: GI50

N#Cc1cc([N+](=O)[O-])ccc1NC(=O)C(=O)C(C(=O)c1ccc2ccccc2c1)C1OCc2ccccc21 (stereo unspecified)
inactive: TK-10 22.3 µM | NCI-H226 1.68 µM | UACC-62 7.46 µM | IGROV-1 17.6 µM | OVCAR-4 > 25.5 µM | HT-29 12.9 µM | SK-MEL-28 4.18 µM | ACHN 14.1 µM | HOP-62 6.65 µM | SN12C 13.7 µM | LOX IMVI 7.19 µM | RXF 393 3.73 µM | SK-OV-3 24.8 µM | U-251 4 µM

CSC(=S)N(C)C [CYSTOGON]
inactive: TK-10 > 100 µM | MDA-MB-231 > 100 µM | NCI-H226 > 100 µM | UACC-62 > 100 µM | IGROV-1 > 100 µM | Hs-578T > 100 µM | HT-29 > 100 µM | MCF7 > 100 µM | SK-MEL-28 > 100 µM | MDA-N > 100 µM | HOP-62 > 100 µM | SN12C > 100 µM | LOX IMVI > 100 µM | RXF 393 > 100 µM | SK-OV-3 > 100 µM | MDA-MB-435 > 100 µM | U-251 > 100 µM

N#CCN1C(=O)c2cccc3cc([N+](=O)[O-])cc(c23)C1=O
inactive: TK-10 36.4 µM | NCI-H226 17.3 µM | UACC-62 22.6 µM | IGROV-1 42.9 µM | OVCAR-4 45.4 µM | HT-29 41.8 µM | SK-MEL-28 35.2 µM | ACHN 42.5 µM | HOP-62 41.1 µM | SN12C 29.4 µM | LOX IMVI 21.6 µM | RXF 393 28.4 µM | SK-OV-3 > 100 µM | U-251 38.7 µM

COC12C=CC(CC1)C1C(=O)c3c(C)c(C)n(C)c3C(=O)C12 (stereo unspecified)
inactive: TK-10 > 100 µM | NCI-H226 25.9 µM | UACC-62 40.9 µM | IGROV-1 73.5 µM | PC-3 > 100 µM | Hs-578T 70.3 µM | HT-29 > 100 µM | MCF7 > 100 µM | ACHN 90.6 µM | HOP-62 > 100 µM | LOX IMVI > 100 µM | RXF 393 > 100 µM | SK-OV-3 > 100 µM | MDA-MB-435 83.2 µM | U-251 > 100 µM

ClCCN(CC#CCCCC#CCN(CCCl)CCCl)CCCl
inactive: TK-10 22.8 µM | NCI-H226 12.9 µM | UACC-62 4.98 µM | IGROV-1 14.2 µM | OVCAR-4 20.6 µM | HT-29 11.4 µM | MCF7 8.75 µM | SK-MEL-28 19.1 µM | ACHN 3.82 µM | HOP-62 11.3 µM | SN12C 7.21 µM | LOX IMVI 5.86 µM | RXF 393 15.5 µM | SK-OV-3 9.31 µM | U-251 8.43 µM

CCOC(=O)C(=O)Nc1ccc(C)cc1C
inactive: TK-10 > 100 µM | NCI-H226 > 100 µM | UACC-62 > 100 µM | IGROV-1 > 100 µM | OVCAR-4 > 100 µM | HT-29 > 100 µM | SK-MEL-28 > 100 µM | ACHN > 100 µM | HOP-62 > 100 µM | SN12C > 100 µM | LOX IMVI > 100 µM | RXF 393 > 100 µM | SK-OV-3 > 100 µM | U-251 > 100 µM

COC(=O)[C@](NC(=O)OCc1ccccc1)([C@@H](C)Sc1ccc(C)cc1)C(F)(F)F
inactive: UACC-62 39.2 µM | IGROV-1 16.5 µM | PC-3 43 µM | Hs-578T 44.9 µM | OVCAR-4 32.3 µM | HT-29 34.7 µM | MCF7 28.9 µM | SK-MEL-28 91.8 µM | MDA-N 63.5 µM | ACHN 60.3 µM | HOP-62 > 100 µM | LOX IMVI 39 µM | SK-OV-3 > 100 µM | MDA-MB-435 49.2 µM | U-251 46.9 µM

CC1=C(C(=O)OC23CC4CC(CC(C4)C2)C3)C(c2ccccc2OC(F)F)C(C(=O)OC23CC4CC(CC(C4)C2)C3)=C(C)N1 (stereo unspecified)
inactive: MDA-MB-231 > 100 µM | NCI-H226 > 100 µM | UACC-62 > 100 µM | IGROV-1 > 100 µM | Hs-578T 68.2 µM | OVCAR-4 > 100 µM | HT-29 > 100 µM | MCF7 74.6 µM | SK-MEL-28 > 100 µM | MDA-N > 100 µM | HOP-62 > 100 µM | SN12C > 100 µM | LOX IMVI > 100 µM | RXF 393 > 100 µM | SK-OV-3 > 100 µM | MDA-MB-435 > 100 µM | U-251 > 100 µM

CC(C)(O)[C@@H]1CC[C@](C)(C2[C@@H](O)C[C@@]3(C)C4C[C@H](OC5OCC(O)C(O)C5O)[C@H]5C(C)(C)[C@@H](OC6OCC(O)C(O)C6OC6OCC(O)C(O)C6O)CC[C@@]56C[C@@]46CC[C@]23C)O1 (stereo partly specified)
inactive: MDA-MB-231 > 100 µM | NCI-H226 > 100 µM | UACC-62 > 100 µM | IGROV-1 > 100 µM | PC-3 > 100 µM | Hs-578T > 100 µM | OVCAR-4 > 100 µM | HT-29 > 100 µM | MCF7 > 100 µM | SK-MEL-28 > 100 µM | HOP-62 > 100 µM | SN12C > 100 µM | RXF 393 > 100 µM | SK-OV-3 > 100 µM | MDA-MB-435 > 100 µM | U-251 > 100 µM

COc1nc(=O)n(C2CC(F)C(CO)O2)cc1C (stereo unspecified)
inactive: TK-10 > 100 µM | MDA-MB-231 > 100 µM | NCI-H226 > 100 µM | UACC-62 > 100 µM | IGROV-1 > 100 µM | Hs-578T > 100 µM | OVCAR-4 > 100 µM | HT-29 > 100 µM | MCF7 > 100 µM | SK-MEL-28 > 100 µM | MDA-N > 100 µM | ACHN > 100 µM | HOP-62 > 100 µM | SN12C > 100 µM | LOX IMVI > 100 µM | MDA-MB-435 > 100 µM | U-251 > 100 µM

Nc1cc2nc(-c3ccccc3)cn2cn1
inactive: TK-10 50.5 µM | MDA-MB-231 > 100 µM | NCI-H226 > 100 µM | UACC-62 54.6 µM | PC-3 50 µM | OVCAR-4 > 100 µM | HT-29 47.2 µM | MCF7 70.1 µM | SK-MEL-28 > 100 µM | MDA-N > 100 µM | ACHN > 100 µM | HOP-62 > 100 µM | SN12C 85.1 µM | LOX IMVI 84.5 µM | RXF 393 50.9 µM | SK-OV-3 > 100 µM | MDA-MB-435 > 100 µM | U-251 > 100 µM

NC(=O)OCc1c(-c2ccccc2)nn(-c2ccccc2)c1COC(N)=O
inactive: TK-10 > 100 µM | MDA-MB-231 > 100 µM | NCI-H226 > 100 µM | UACC-62 > 100 µM | IGROV-1 > 10 µM | PC-3 > 100 µM | OVCAR-4 > 100 µM | HT-29 > 100 µM | MCF7 > 100 µM | SK-MEL-28 > 100 µM | MDA-N > 100 µM | SN12C > 100 µM | RXF 393 > 100 µM | MDA-MB-435 > 100 µM | U-251 > 100 µM

COc1cc(-c2nc(SC)nc3c2CCc2ccccc2-3)cc(OC)c1OC
inactive: MDA-MB-231 28.3 µM | NCI-H226 > 10 µM | UACC-62 82.4 µM | IGROV-1 65.3 µM | PC-3 34.5 µM | Hs-578T > 100 µM | OVCAR-4 65 µM | HT-29 50.1 µM | MCF7 50.1 µM | SK-MEL-28 > 100 µM | ACHN > 100 µM | HOP-62 > 100 µM | SN12C > 100 µM | LOX IMVI 91.8 µM | RXF 393 36 µM | SK-OV-3 > 100 µM | MDA-MB-435 95.1 µM | U-251 93.1 µM

COC(=O)C1(C(=O)OC)N=C(C)OC1c1ccoc1 (stereo unspecified)
inactive: TK-10 > 100 µM | NCI-H226 > 100 µM | UACC-62 > 100 µM | PC-3 > 100 µM | OVCAR-4 > 100 µM | MCF7 > 100 µM | SK-MEL-28 > 100 µM | MDA-N > 100 µM | ACHN > 100 µM | HOP-62 > 100 µM | SN12C > 100 µM | LOX IMVI > 100 µM | RXF 393 > 100 µM | SK-OV-3 > 100 µM | MDA-MB-435 > 100 µM | U-251 > 100 µM

CN(C)CCNC(=O)c1cccc2c(NC(CS)C(=O)O)c3ccccc3nc12 (stereo unspecified)
inactive: TK-10 28.8 µM | MDA-MB-231 6.18 µM | NCI-H226 5.53 µM | UACC-62 21.6 µM | IGROV-1 4.88 µM | PC-3 6.07 µM | OVCAR-4 17.1 µM | HT-29 4.94 µM | MCF7 2.95 µM | SK-MEL-28 10.7 µM | MDA-N 4.55 µM | ACHN 4.49 µM | HOP-62 5.32 µM | SN12C 2.6 µM | LOX IMVI 4.41 µM | SK-OV-3 9.86 µM | MDA-MB-435 4.49 µM | U-251 6.38 µM

Oc1ccc(O)c(Sc2nnc(CCCCCCCCc3nnc(Sc4cc(O)ccc4O)o3)o2)c1
inactive: TK-10 > 100 µM | MDA-MB-231 > 100 µM | NCI-H226 > 100 µM | UACC-62 47.5 µM | IGROV-1 96.8 µM | PC-3 > 100 µM | OVCAR-4 33.1 µM | HT-29 > 100 µM | MCF7 33.8 µM | SK-MEL-28 > 100 µM | MDA-N 17.3 µM | ACHN 28.1 µM | HOP-62 > 100 µM | SN12C 90.6 µM | SK-OV-3 > 100 µM | MDA-MB-435 18.2 µM | U-251 71.6 µM
